The results in this text go back to patent publication US6517812B1, “Inhibition of psychostimulant-induced and nicotine-induced craving” (The General Hospital Corporation, priority 1997, dated 2003).

Series [1] has as its system Male Harlan Sprague-Dawley rats. Nature of the series: Arterial blood pressure and heart rate monitoring in rat. The protocol:
All procedures were carried out in accordance with NIH guidelines. Male Harlan Sprague-Dawley rats (225-300 gm) were anesthetized briefly with 1.5% halothane in oxygen for insertion of left femoral arterial and venous cannulae and placement of tracheostomy for mechanical ventilation (using a 16 gauge intravenous catheter, Inste-W, Becton Dickinson, Sandy, Utah). All wounds were infiltrated with 1% lidocaine before incision. Following surgery, the inspired halothane concentration was reduced to 0.7% and rats were paralyzed with 2 mg/kg intravenous pancuronium, followed by a continuous intravenous infusion of pancuronium at 2 mg/kg/hr. Pancuronium was dissolved in normal saline administered at 5 ml/kg/hr. Rats were mechanically ventilated (in a small animal volume controlled ventilator, Harvard Apparatus, Inc., South Natick, Mass.) with a 80/20 air/oxygen mixture, an inspiratory to expiratory ratio of 1:1, and an initial tidal volume of 3.0 ml at a rate of 40 breaths per minute. Ventilation parameters were adjusted to maintain normal arterial blood gases (pH=7.40±0.01, PaCO2=40±2, PaO2=145±10). Arterial blood samples (150 μl) withdrawn from cannula were analyzed for arterial partial pressures of oxygen, carbon dioxide, and pH (Ciba-Coming Model 1304) before administration of drugs, and at the end of each experiment before sacrifice, to ensure animal stability. Arterial blood pressure and rectal temperature were monitored throughout the experiment. […] Rats torsos were wrapped in two heating blankets (Gaymar, Orchid Park, N.Y.) circulating warm water to maintain core temperature at 37-38° C. […]
Regional cortical blood flow was determined by LDF (Perimed, PF2B, Stockholm, Sweden) as described previously (Ayata, et al., 1996, J. Cereb. Blood Flow Metab., 16:539-541). […] All data were collected, stored, and analyzed using MacLab/8 data acquisition and analysis system (ADInstruments, Mountain View, Calif.). Arterial pressure was continuously monitored and the data stored; heart rate was calculated from arterial pressure pulses by the data acquisition software. […]

The test system of a further series is rat frontal cortex. Nature of the series: BOLD fMRI in drug-naive rat after IV cocaine. The format is in vivo. The protocol:
All procedures were carried out in accordance with NIH guidelines. Male Harlan Sprague-Dawley rats (225-300 gm) were anesthetized briefly with 1.5% halothane in oxygen for insertion of left femoral arterial and venous cannulae and placement of tracheostomy for mechanical ventilation (using a 16 gauge intravenous catheter, Inste-W, Becton Dickinson, Sandy, Utah). All wounds were infiltrated with 1% lidocaine before incision. Following surgery, the inspired halothane concentration was reduced to 0.7% and rats were paralyzed with 2 mg/kg intravenous pancuronium, followed by a continuous intravenous infusion of pancuronium at 2 mg/kg/hr. Pancuronium was dissolved in normal saline administered at 5 ml/kg/hr. Rats were mechanically ventilated (in a small animal volume controlled ventilator, Harvard Apparatus, Inc., South Natick, Mass.) with a 80/20 air/oxygen mixture, an inspiratory to expiratory ratio of 1:1, and an initial tidal volume of 3.0 ml at a rate of 40 breaths per minute. […] Arterial blood samples (150 μl) withdrawn from cannula were analyzed for arterial partial pressures of oxygen, carbon dioxide, and pH (Ciba-Coming Model 1304) before administration of drugs, and at the end of each experiment before sacrifice, to ensure animal stability. Arterial blood pressure and rectal temperature were monitored throughout the experiment. […]

The subject of series [2] is cocaine-dependent volunteers. The experiment in a line: Physiological monitoring (HR, MBP, ETCO2, ECG) after double-blind IV cocaine infusion. The class given is in vivo. The settings on record: human. How it is done: Subjects were admitted to the MGH GCRC for the screening procedures; those meeting all criteria were boarded overnight on the unit in preparation for imaging the following day. The following morning the subject had bilateral intravenous catheters placed (right forearm for cocaine or saline infusion, left forearm for serial venous blood sampling for quantitative cocaine levels). Scanning was performed between 11AM and 3PM during which the subject was in the scanner for two periods of time each lasting from 45 to 90 minutes. During each scanning period, one infusion was given, either cocaine (0.6 mg/kg, maximum dose 40 mg) or saline (both in a volume of 10 cc given over 30 seconds IV) in a randomized, double blind order. Five different scans were performed during each period. The infusion itself was made 5 minutes into an 18 minute long blood oxygen level dependent (BOLD) scan. The BOLD infusion scan was bracketed by flow-sensitive alternating inversion recovery (FAIR) and visual stimulation BOLD scans (the data from these scans were used to delineate the global vs. regional signal changes from cocaine). The time interval between functional scans within a period was kept to a minimum. The entire sequence of 5 functional scans was completed within 45-60 minutes. The subject was removed from the scanner for a 15-30 minute rest and then was returned to magnet and the sequence was repeated for the second infusion. A minimum of two hours had to pass between each double-blind infusion.
Physiologic monitoring was conducted using an In Vivo OmniTrak 3100 patient monitoring system (Orlando, Fla.) modified to permit on-line computer acquisition of physiologic measurements. Each subject was fitted with chest leads to record the electrocardiogram (ECG) and to measure heart rate (HR), a nasal cannula to measure respiratory rate and end-expiratory carbon dioxide (ETCO2), and a blood pressure cuff to measure non-invasively systemic mean blood pressure (MBP). The temporal resolution of the system for sampling blood pressure was once every two minutes.
Precautions taken to ensure safe conduct of the study included use of ACLS trained personnel, frequent running of mock codes with clocked performance of tasks and strict definition of individual tasks, and presence of a cardiologist at the time of all infusions whose sole responsibility was to monitor subject safety. Before and after completion of both infusions, subjects underwent a 12-lead ECG to determine the absence of any interval change from the experiments. Because of magnetohydrodynamic effects on the ECG tracing, a baseline rhythm strip was obtained prior to each drug infusion and all subsequent tracings were compared to that one.
Physiological Data: The data analysis and graphing program IGOR (WaveMetrics, Inc.) was used to analyze the data. Data were first analyzed by a 2 way ANOVA with drug treatment (saline, cocaine) and time of measurement as factors. When significant F values were obtained for one of the physiologic measures, individual time points were compared by post-hoc t-tests to determine if (and at what times) the change from baseline was significant. The Bonferroni correction for multiple comparisons was used; the criteria for significance at the 0.05 level was p<0.007.

Take `COC(=O)[C@H]1[C@@H](OC(=O)c2ccccc2)C[C@@H]2CC[C@H]1N2C` [cocaine]: the adverse cardiovascular response result in series [1] (cocaine doses above 5 mg/kg IV) was “profound hypotension and cardiac arrhythmia”. In addition, the “transient increase in arterial blood pressure” value in series [1] (cocaine infusion 0.5 mg/kg) is listed as 5-10 mm Hg. Moreover, the “time of return of BOLD contrast to baseline” value in the series with rat frontal cortex (cocaine 0.5 mg/kg IV, after infusion) came to 20 min. Also, the “maximal R2 (BOLD contrast)” value in the series with rat frontal cortex (cocaine 1 mg/kg IV) was found to be 2.5 ± 0.6 s⁻¹. For the same compound, the “cardiac rhythm (ECG)” value in series [2] (all subjects throughout the study) is given as “Normal sinus rhythm”. Moreover, the “time for HR, MBP and ETCO2 to return to baseline” value in series [2] (cocaine 0.6 mg/kg IV) was not above 2 h. The “heart rate (HR)” value in series [2] (cocaine 0.6 mg/kg IV over 30 seconds, n=17, 2 minutes post-infusion) worked out at 79±16 bpm; in series [2] (cocaine 0.6 mg/kg IV, n=17, 5 minutes post infusion), 82±12 bpm; in series [2] (cocaine 0.6 mg/kg IV, n=17, 10 minutes post infusion) it was 93±14 bpm. In addition, the “mean blood pressure (MBP)” value turned out to be 101±12 torr in series [2] (cocaine 0.6 mg/kg IV, 2 minutes post-infusion) and 111±15 torr in series [2] (cocaine 0.6 mg/kg IV, 5 minutes). In addition, the “end-tidal carbon dioxide (ETCO2)” value in series [2] (cocaine 0.6 mg/kg IV, by 10 minutes) was 36±4 mm Hg.
